Measured values: US20250270200A1, “CTPS1 INHIBITORS AND USES THEREOF” (Nimbus Clotho, Inc., priority 2022, published 2025)

Biological target: T1, human CTPS1 (Homo sapiens, UniProt P17812)
T1 sequence (P17812 1-591): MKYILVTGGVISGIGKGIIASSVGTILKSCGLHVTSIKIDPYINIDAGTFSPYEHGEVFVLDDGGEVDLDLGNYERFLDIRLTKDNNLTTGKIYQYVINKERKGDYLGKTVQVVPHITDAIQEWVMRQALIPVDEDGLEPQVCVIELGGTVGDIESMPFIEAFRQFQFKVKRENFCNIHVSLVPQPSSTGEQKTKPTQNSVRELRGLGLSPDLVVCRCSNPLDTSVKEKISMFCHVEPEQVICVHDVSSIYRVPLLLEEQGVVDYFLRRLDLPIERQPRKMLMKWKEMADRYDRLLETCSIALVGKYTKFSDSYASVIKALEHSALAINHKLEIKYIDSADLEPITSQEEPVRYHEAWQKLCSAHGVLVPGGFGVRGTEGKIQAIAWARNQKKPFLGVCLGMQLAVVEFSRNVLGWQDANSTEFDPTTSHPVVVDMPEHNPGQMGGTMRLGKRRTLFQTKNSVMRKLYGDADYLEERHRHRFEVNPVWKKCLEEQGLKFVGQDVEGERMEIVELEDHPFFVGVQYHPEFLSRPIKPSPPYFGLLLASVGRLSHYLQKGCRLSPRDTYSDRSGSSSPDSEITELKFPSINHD
Experiment: ADP-Glo assay, human CTPS1 enzyme inhibition
Assay type: biochemical
Details: wild-type human CTPS1, 25 nM enzyme; ADP-Glo; read-out: ADP-Glo_WT_hCTPS1—25 nM_IC50 (IC50)
Procedure, shortened: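 Full-length tagged human CTPS1 (25 nM) pre-incubated 10 min at 25° C with compound, then 10 min with ATP (120 μM) and UTP (160 μM); reaction started with L-glutamine (100 μM) and GTP (60 μM), 1% DMSO, in HEPES pH 7.4, 10 mM Mg2+, 5 mM KCl, 2 mM DTT. Run within linear phase at 25° C; ADP measured by ADP-Glo luminescence.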

| IC50 [nM] | Structure (SMILES) |
| --- | --- |
| 5 to 25 | CCOc1cncc(-c2cnc(C(=O)N[C@@H](c3cc(NS(=O)(=O)C4CC4)ccn3)[C@@H](C)CO)s2)n1 [I-226, N-((1R,2R)-1-(4-(cyclopropanesulfonamido)pyridin-2-yl)-3-hydroxy-2-methylpropyl)-5-(6-ethoxypyrazin-2-yl)thiazole-2-carboxamide] |
| ≤ 5 | CCOc1cncc(-c2cnc(C(=O)N[C@@H](c3cc(NS(=O)(=O)C4CC4)ccn3)[C@H](C)CO)s2)n1 [I-227, N-((1R,2S)-1-(4-(cyclopropanesulfonamido)pyridin-2-yl)-3-hydroxy-2-methylpropyl)-5-(6-ethoxypyrazin-2-yl)thiazole-2-carboxamide] |
| 5 to 25 | CCOc1cncc(-c2cnc(C(=O)N[C@H](c3cc(NS(=O)(=O)C4CC4)ccn3)[C@@H](C)CO)s2)n1 [I-228, N-((1S,2R)-1-(4-(cyclopropanesulfonamido)pyridin-2-yl)-3-hydroxy-2-methylpropyl)-5-(6-ethoxypyrazin-2-yl)thiazole-2-carboxamide] |
| ≤ 5 | CCOc1cncc(-c2cnc(C(=O)N[C@H](c3cc(NS(=O)(=O)C4CC4)ccn3)[C@H](C)CO)s2)n1 [I-229, N-((1S,2S)-1-(4-(cyclopropanesulfonamido)pyridin-2-yl)-3-hydroxy-2-methylpropyl)-5-(6-ethoxypyrazin-2-yl)thiazole-2-carboxamide] |
| ≤ 5 | C[C@H](CO)[C@@H](NC(=O)c1ncc(-c2cnn3ccc(Cl)cc23)s1)c1cc(NS(=O)(=O)C2CC2)ccn1 [I-230, 5-(5-chloropyrazolo[1,5-a]pyridin-3-yl)-N-((1R,2S)-1-(4-(cyclopropanesulfonamido)pyridin-2-yl)-3-hydroxy-2-methylpropyl)thiazole-2-carboxamide] |
| 5 to 25 | C[C@@H](CO)[C@@H](NC(=O)c1ncc(-c2cnn3ccc(Cl)cc23)s1)c1cc(NS(=O)(=O)C2CC2)ccn1 [I-231, 5-(5-chloropyrazolo[1,5-a]pyridin-3-yl)-N-((1R,2R)-1-(4-(cyclopropanesulfonamido)pyridin-2-yl)-3-hydroxy-2-methylpropyl)thiazole-2-carboxamide] |
| 5 to 25 | C[C@@H](CO)[C@H](NC(=O)c1ncc(-c2cnn3ccc(Cl)cc23)s1)c1cc(NS(=O)(=O)C2CC2)ccn1 [I-232, 5-(5-chloropyrazolo[1,5-a]pyridin-3-yl)-N-((1S,2R)-1-(4-(cyclopropanesulfonamido)pyridin-2-yl)-3-hydroxy-2-methylpropyl)thiazole-2-carboxamide] |
| 5 to 25 | C[C@H](CO)[C@H](NC(=O)c1ncc(-c2cnn3ccc(Cl)cc23)s1)c1cc(NS(=O)(=O)C2CC2)ccn1 [I-233, 5-(5-chloropyrazolo[1,5-a]pyridin-3-yl)-N-((1S,2S)-1-(4-(cyclopropanesulfonamido)pyridin-2-yl)-3-hydroxy-2-methylpropyl)thiazole-2-carboxamide] |
| ≤ 5 | CCOc1cncc(-c2cnc(C(=O)N[C@@H](c3cc(NS(=O)(=O)C4CC4)ccn3)[C@H](C)COC)s2)n1 [I-234, N-((1R,2S)-1-(4-(cyclopropanesulfonamido)pyridin-2-yl)-3-methoxy-2-methylpropyl)-5-(6-ethoxypyrazin-2-yl)thiazole-2-carboxamide] |
| 5 to 25 | CCOc1cncc(-c2cnc(C(=O)N[C@@H](c3cc(NS(=O)(=O)C4CC4)ccn3)[C@@H](C)COC)s2)n1 [I-235, N-((1R,2R)-1-(4-(cyclopropanesulfonamido)pyridin-2-yl)-3-methoxy-2-methylpropyl)-5-(6-ethoxypyrazin-2-yl)thiazole-2-carboxamide] |
| ≤ 5 | CCOc1cncc(-c2cnc(C(=O)N[C@H](c3cc(NS(=O)(=O)C4CC4)ccn3)[C@@H](C)COC)s2)n1 [I-236, N-((1S,2R)-1-(4-(cyclopropanesulfonamido)pyridin-2-yl)-3-methoxy-2-methylpropyl)-5-(6-ethoxypyrazin-2-yl)thiazole-2-carboxamide] |
| ≤ 5 | CCOc1cncc(-c2cnc(C(=O)N[C@H](c3cc(NS(=O)(=O)C4CC4)ccn3)[C@H](C)COC)s2)n1 [I-237, N-((1S,2S)-1-(4-(cyclopropanesulfonamido)pyridin-2-yl)-3-methoxy-2-methylpropyl)-5-(6-ethoxypyrazin-2-yl)thiazole-2-carboxamide] |
| 25 to 50 | CCOc1cncc(-c2cnc(C(=O)N[C@@H](CO[C@H]3CCOC3)c3cc(NS(=O)(=O)C4CC4)ccn3)s2)n1 [I-238, N-((R)-1-(4-(cyclopropanesulfonamido)pyridin-2-yl)-2-(((S)-tetrahydrofuran-3-yl)oxy)ethyl)-5-(6-ethoxypyrazin-2-yl)thiazole-2-carboxamide] |
| 5 to 25 | CCOc1cncc(-c2cnc(C(=O)N[C@@H](CO[C@@H]3CCOC3)c3cc(NS(=O)(=O)C4CC4)ccn3)s2)n1 [I-239, N-((R)-1-(4-(cyclopropanesulfonamido)pyridin-2-yl)-2-(((R)-tetrahydrofuran-3-yl)oxy)ethyl)-5-(6-ethoxypyrazin-2-yl)thiazole-2-carboxamide] |
| 5 to 25 | CCOc1cncc(-c2cnc(C(=O)N[C@H](CO[C@@H]3CCOC3)c3cc(NS(=O)(=O)C4CC4)ccn3)s2)n1 [I-240, N-((S)-1-(4-(cyclopropanesulfonamido)pyridin-2-yl)-2-(((R)-tetrahydrofuran-3-yl)oxy)ethyl)-5-(6-ethoxypyrazin-2-yl)thiazole-2-carboxamide] |
| 5 to 25 | CCOc1cncc(-c2cnc(C(=O)N[C@H](CO[C@H]3CCOC3)c3cc(NS(=O)(=O)C4CC4)ccn3)s2)n1 [I-241, N-((S)-1-(4-(cyclopropanesulfonamido)pyridin-2-yl)-2-(((S)-tetrahydrofuran-3-yl)oxy)ethyl)-5-(6-ethoxypyrazin-2-yl)thiazole-2-carboxamide] |
| ≤ 5 | CCOc1cncc(-c2cnc(C(=O)N[C@H](c3cccc(NS(=O)(=O)C(F)F)c3)[C@H](C)CO)s2)n1 [I-242, N-((1S,2S)-1-(3-((difluoromethyl)sulfonamido)phenyl)-3-hydroxy-2-methylpropyl)-5-(6-ethoxypyrazin-2-yl)thiazole-2-carboxamide] |
| 5 to 25 | CCOc1cncc(-c2cnc(C(=O)N[C@H](c3cccc(NS(=O)(=O)C(F)F)c3)[C@@H](C)CO)s2)n1 [I-243, N-((1S,2R)-1-(3-((difluoromethyl)sulfonamido)phenyl)-3-hydroxy-2-methylpropyl)-5-(6-ethoxypyrazin-2-yl)thiazole-2-carboxamide] |
| ≤ 5 | CCOc1cncc(-c2cnc(C(=O)N[C@@H](c3cccc(NS(=O)(=O)C(F)F)c3)[C@@H](C)CO)s2)n1 [I-244, N-((1R,2R)-1-(3-((difluoromethyl)sulfonamido)phenyl)-3-hydroxy-2-methylpropyl)-5-(6-ethoxypyrazin-2-yl)thiazole-2-carboxamide] |
| ≤ 5 | CCOc1cncc(-c2cnc(C(=O)N[C@@H](c3cccc(NS(=O)(=O)C(F)F)c3)[C@H](C)CO)s2)n1 [I-245, N-((1R,2S)-1-(3-((difluoromethyl)sulfonamido)phenyl)-3-hydroxy-2-methylpropyl)-5-(6-ethoxypyrazin-2-yl)thiazole-2-carboxamide] |
| 5 to 25 | CCOc1cncc(-c2cnc(C(=O)N[C@@H](CN3CCOCC3)c3cc(NS(=O)(=O)C4CC4)ncn3)s2)n1 [I-246, (S)-N-(1-(6-(cyclopropanesulfonamido)pyrimidin-4-yl)-2-morpholinoethyl)-5-(6-ethoxypyrazin-2-yl)thiazole-2-carboxamide] |
| 25 to 50 | CCOc1cncc(-c2cnc(C(=O)N[C@@H](CN3CCN(C4CC4)CC3)c3cc(NS(=O)(=O)C4CC4)ncn3)s2)n1 [I-248, (S)-N-(1-(6-(cyclopropanesulfonamido)pyrimidin-4-yl)-2-(4-cyclopropylpiperazin-1-yl)ethyl)-5-(6-ethoxypyrazin-2-yl)thiazole-2-carboxamide] |
| 25 to 50 | CCOc1cncc(-c2cnc(C(=O)N[C@H](CN3CCN(C4CC4)CC3)c3cc(NS(=O)(=O)C4CC4)ncn3)s2)n1 [I-249, (R)-N-(1-(6-(cyclopropanesulfonamido)pyrimidin-4-yl)-2-(4-cyclopropylpiperazin-1-yl)ethyl)-5-(6-ethoxypyrazin-2-yl)thiazole-2-carboxamide] |
| 25 to 50 | CCOc1cncc(-c2cnc(C(=O)N[C@@H](CN3CCCC3)c3cc(NS(=O)(=O)C4CC4)ncn3)s2)n1 [I-250, (S)-N-(1-(6-(cyclopropanesulfonamido)pyrimidin-4-yl)-2-(pyrrolidin-1-yl)ethyl)-5-(6-ethoxypyrazin-2-yl)thiazole-2-carboxamide] |
| 25 to 50 | CCOc1cncc(-c2cnc(C(=O)N[C@H](CN3CCCC3)c3cc(NS(=O)(=O)C4CC4)ncn3)s2)n1 [I-251, (R)-N-(1-(6-(cyclopropanesulfonamido)pyrimidin-4-yl)-2-(pyrrolidin-1-yl)ethyl)-5-(6-ethoxypyrazin-2-yl)thiazole-2-carboxamide] |
